The text below walks through data of patent publication US8232307B2, “Indane-amine derivatives, their preparation and use as medicaments” (Laboratorios del Dr. Esteve, S.A., priority 2007, dated 2012).

Molecules are shown by their SMILES. Structures can show the parent of a compound that is named as a salt.

T1 sequence (P34969 whole entry): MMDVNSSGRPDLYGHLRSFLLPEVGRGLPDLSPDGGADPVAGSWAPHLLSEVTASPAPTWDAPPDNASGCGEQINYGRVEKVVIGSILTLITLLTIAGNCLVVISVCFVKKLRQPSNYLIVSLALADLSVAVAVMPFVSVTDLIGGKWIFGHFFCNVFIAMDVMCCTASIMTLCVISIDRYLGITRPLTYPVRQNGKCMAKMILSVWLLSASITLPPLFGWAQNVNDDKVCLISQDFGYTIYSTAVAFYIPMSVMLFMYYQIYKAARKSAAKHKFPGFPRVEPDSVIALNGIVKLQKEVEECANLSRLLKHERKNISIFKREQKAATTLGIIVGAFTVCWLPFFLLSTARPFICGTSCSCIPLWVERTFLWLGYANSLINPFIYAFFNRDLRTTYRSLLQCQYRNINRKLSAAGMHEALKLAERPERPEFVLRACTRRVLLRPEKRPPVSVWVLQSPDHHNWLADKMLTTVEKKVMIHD

The first test concerns the target T1, Cloned Human Serotonin Receptor, Subtype 7 (h5HT7) (Homo sapiens, UniProt P34969).
T1 construct: purchased PerkinElmer 6120512; host or cells: CHO cells (membranes coated on Basic FlashPlate SMP200)
As to the kind of experiment: Radioligand binding assay, [125I]LSD, h5HT7 expressed in CHO cells. The conditions noted are these: radioligand [125I]LSD 0.82 nM, read-out: 5-HT7 IC50. As for the experimental part: Radioligand binding assays were performed using the Cloned Human Serotonin Receptor, Subtype 7 (h5HT7), expressed in CHO cells, coated on Flashplate (Basic FlashPlate Cat.: SMP200) from PerkinElmer (Cat.: 6120512). The protocol assay was essentially the recommended protocol in the Technical Data Sheet by PerkinEmer Life and Analytical Sciences. The Mass membrane protein/well was typically 12 μg and the Receptor/well was about 9-10 fmoles. The Flashplate were let equilibrate at room temperature for one hour before the addition of the components of the assay mixture. The binding buffer was: 50 mM Tris-HCl, pH 7.4, containing 10 mM MgCl2, 0.5 mM EDTA and 0.5% BSA. The radioligand was [^125I]LSD at a final concentration of 0.82 nM. Nonspecific binding was determined with 50 μM of Clozapine. The assay volume was 25 μl. TopSeal-A were applied onto Flashplate microplates and they were incubated at room temperature for 240 minutes in darkness. The radioactivity were quantified by liquid scintillation spectrophotometry (Wallac 1450 Microbeta Trilux) with a count delay of 4 minutes prior to counting and a counting time of 30 seconds per well. Competition binding data were analyzed by using the LIGAND program (Munson and Rodbard, LIGAND: A versatile, computerized approach for characterization of ligand-binding systems. Anal. Biochem. 107: 220-239, 1980) and assays were performed in triplicate determinations for each point.
Regarding `Cc1nn(C)c(C)c1-c1ccc2c(c1)[C@H](N(C)C)CC2` [Example 2, (R)-Dimethyl-[6-(1,3,5-trimethyl-1H-pyrazol-4-yl)-indan-1-yl]-amine], the IC50 came to 5.5 ± 2.7 nM. Still for that read-out and setting: the result for `CNC1CCc2ccc(-c3c(OC)cccc3OC)cc21` (stereo not drawn) [Example 11, [6-(2,6-Dimethoxy-phenyl)-indan-1-yl]-methyl-amine] reads 195 ± 86 nM; that for `CNC1CCc2ccc(-c3ccccc3OC)cc21` (stereo not drawn) [Example 13, [6-(2-Methoxy-phenyl)-indan-1-yl]-methyl-amine], 77.7 ± 40.9 nM; that for `COc1ccccc1-c1ccc2c(c1)C(N(C)C)CC2` (stereo not drawn) [Example 12, [6-(2-Methoxy-phenyl)-indan-1-yl]-dimethyl-amine], 68.4 ± 1.1 nM. The same measure, in the same setting: the result for `Cc1nn(C)c(C)c1-c1ccc2c(c1)[C@@H](N(C)C)CC2` [Example 3, (S) Dimethyl-[6-(1,3,5-trimethyl-1H-pyrazol-4-yl)-indan-1-yl]-amine] reads 307 ± 181 nM; that for `Cc1nn(C)c(C)c1-c1ccc2c(c1)C(N(C)C)CC2` (stereo not drawn) [Example 1, Dimethyl-[6-(1,3,5-trimethyl-1H-pyrazol-4-yl)-indan-1-yl]-amine dihydrochloride], 15.5 ± 2.9 nM; that for `CNC1CCc2ccc(-c3c(C)nn(C)c3C)cc21` (stereo not drawn) [Example 4, Methyl-[6-(1,3,5-trimethyl-1H-pyrazol-4-yl)-indan-1-yl]-amine], 18.7 nM.

Take `COc1cccc(OC)c1-c1ccc2c(c1)C(N(C)C)CC2` (stereo not drawn) [Example 10, [6-(2,6-Dimethoxy-phenyl)-indan-1-yl]-dimethyl-amine]: the IC50 is 53.5 ± 10.1 nM.

Staying with this test, now noted: radioligand [125I]LSD 0.82 nM, read-out: 5-HT7 Ki.
Consider `CNC1CCc2ccc(-c3c(C)cccc3C)cc21` (stereo not drawn) [Example 15, [6-(2,6-Dimethyl-phenyl)-indan-1-yl]-methyl-amine], for which the Ki was found to be 75.2 ± 2 nM. Still for that read-out and setting: the result for `Cc1cccc(C)c1-c1ccc2c(c1)C(N(C)C)CC2` (stereo not drawn) [Example 14, [6-(2,6-Dimethyl-phenyl)-indan-1-yl]-dimethyl-amine] reads 198 ± 31.9 nM; that for `CNC1CCc2ccc(-c3c(Cl)cccc3OC)cc21` (stereo not drawn) [Example 21, [6-(2-Chloro-6-methoxy-phenyl)-indan-1-yl]-methyl-amine], 55.7 ± 1.2 nM; that for `COc1cccc(Cl)c1-c1ccc2c(c1)C(N(C)C)CC2` (stereo not drawn) [Example 20, [6-(2-Chloro-6-methoxy-phenyl)-indan-1-yl]-dimethyl-amine], 25.8 ± 2.7 nM. On the same count and under the same terms, for `Cc1nn(C)c(C)c1-c1ccc2c(c1)C([N+](C)(C)C)CC2` (stereo not drawn) [Example 36, Trimethyl-[6-(1,3,5-trimethyl-1H-pyrazol-4-yl)-indan-1-yl]-ammonium iodide] the value was 153 ± 32.4 nM; for `CNC1CCc2ccc(-c3c(F)cccc3F)cc21` (stereo not drawn) [Example 19, [6-(2,6-Difluoro-phenyl)-indan-1-yl]-methyl-amine], 47.6 ± 1.2 nM; for `CN[C@@H]1CCc2ccc(-c3c(C)nn(C)c3C)cc21` [Example 38, (R) Methyl-[6-(1,3,5-trimethyl-1H-pyrazol-4-yl)-indan-1-yl]-amine], 73.3 ± 9.3 nM.

The IC50 is the concentration that gives 50% inhibition. The Ki is the dissociation constant of the complex between target and ligand, obtained from inhibition or displacement.
